From patent US20130158073A1, “Methods Of Diminishing Co-Abuse Potential” (priority 2004, published 2013)
Where a name gives a salt, the structure may show the parent alone.

Legend:
[1] = cited from earlier work
male Sprague-Dawley rats = conditions: coadministered with 10% w/v ethanol
[2] = co-administration of racemic methylphenidate and ethanol

SMILES: CCOC(=O)C(c1ccccc1)C1CCCCN1 (centres unmarked) [Ethylphenidate]
- isomer excreted in the urine [1, 2]: primarily as the l-isomer

SMILES: COC(=O)[C@H](c1ccccc1)[C@H]1CCCCN1 [d-MPH, dexmethylphenidate HCl]
- potency compared to ethanol/d,l-MPH (male Sprague-Dawley rats; i.p.): half as potent

SMILES: COC(=O)C(c1ccccc1)C1CCCCN1 (racemic) [d,l-MPH, d,l-methylphenidate HCl]
- potency compared to ethanol/cocaine for discriminative stimulus effects (male Sprague-Dawley rats; i.p.): equipotent
- potency compared to ethanol/cocaine for response rate effects (male Sprague-Dawley rats; i.p.): equipotent
- rates of response compared with saline control test sessions, at doses producing full ethanol/cocaine-lever responding (male Sprague-Dawley rats; i.p. 15 minutes before session): do not decrease rates of response
- isomer excreted in the urine [1, 2]: primarily as the d-isomer
- ethylphenidate metabolite in plasma and urine ([1]; human subjects, co-administration of a single dose of methylphenidate and ethanol): ethylphenidate was also detected in plasma and urine

SMILES: COC(=O)[C@@H](c1ccccc1)[C@@H]1CCCCN1 [l-methylphenidate]
- transesterification after co-administration of racemic methylphenidate and ethanol [1, 2]: transesterifies enantioselectively to l-ethylphenidate
